Read-outs that look alike come from different tables or passages of the source. Some results are limits rather than exact numbers.

One may read the IC50 as the concentration at which inhibition is half-maximal.

Holding throughout (format): cell-based
For assay [1], the system named is Human prostate cancer cells LNCaP. Kind of assay: Inhibitory activity on androgen-dependent proliferation of prostate cancer cells. The settings on record: 1 nmol/L DHT, 72 hours, Cell Counting Kit-8, read-out: Proliferation inhibition concentration GI50 value. Here is the method: Human prostate cancer cells LNCaP (Non-Patent Literature 5) having […] androgen receptor gene were seeded in a clear bottom 96 well microplate (BD) at 4.0×10^3/well with phenol red free RPMI1640 containing 5% DCC-FBS (hereinbelow, the medium is referred to as an evaluation medium), and then cultured overnight. […] Then, the number of viable cells was measured. The number of viable cells was measured by using Cell Counting Kit-8 (DOJINDO LABORATORIES).

The subject of assay [2] is AR positive human prostate cancer cells VCaP. As to the kind of experiment: Agonist activity for AR: cell proliferation rate of VCaP cells. The following applies: 5-10000 nmol/L, 72 hours, relative to evaluation medium only, more than 10% = agonist activity. Here is the method: Then, the number of viable cells was measured (test group). As a control, the cells were cultured after being added with the evaluation medium only, and the number of viable cells was measured (control group). The number of viable cells was measured by using CellTiter-Glo™ Luminescent Cell Viability Assay (Promega). From the measured number of viable cells, cell proliferation rate with respect to the compound of Examples or the compound of Comparative Examples was calculated based on the number of viable cells measured in the case of using the evaluation medium only. Cell proliferation rate (%)=(Number of viable cells in test group−Number of viable cells in control group)/(Number of viable cells in control group)×100
By considering an error in the number of viable cells measured in the case of using the evaluation medium only, when the cell proliferation rate was more than 10% at any concentration of the 8 concentrations which had been evaluated, it was determined to have an agonist activity for AR.

A further assay deals with AR expression in LNCaP. Kind of assay: Activity of reducing expression level of androgen receptor (Western blotting in LNCaP). The settings on record: Homo sapiens, read-out: AR expression reducing activity. Here is the method:
AR positive human prostate cancer cells LNCaP were seeded in a 6 well microplate (BD) at 3.5×10^5/well with RPMI1640 containing 5% FBS (hereinbelow, the medium is referred to as an evaluation medium), and then cultured overnight. […] After culture for 48 hours, the medium was removed and the cells were washed with PBS and added with 0.1 mL of Lysis buffer (M-PER added with Protease Inhibitor Cocktail), followed by keeping at 4° C. for 20 minutes. After cell lysis, the cell solution was centrifuged to recover the supernatant as cell lysate. […] The antibody-reacting band (anti AR receptor) was quantified by LAS Imaging System (FUJIFILM) using Super Signal West Dura Substrate (Thermo Scientific) as a detection reagent.
When the AR expression reducing activity is 50% or more, it is described as “reduced”.
(In general: Immunoblotting shows a protein as a band on a membrane.)

In another assay the target is T1, human androgen receptor (Homo sapiens, UniProt P10275).
T1 construct: expressed in transfected cells; host or cells: COS-7 cells (ATCC)
T1 sequence (P10275 1-920): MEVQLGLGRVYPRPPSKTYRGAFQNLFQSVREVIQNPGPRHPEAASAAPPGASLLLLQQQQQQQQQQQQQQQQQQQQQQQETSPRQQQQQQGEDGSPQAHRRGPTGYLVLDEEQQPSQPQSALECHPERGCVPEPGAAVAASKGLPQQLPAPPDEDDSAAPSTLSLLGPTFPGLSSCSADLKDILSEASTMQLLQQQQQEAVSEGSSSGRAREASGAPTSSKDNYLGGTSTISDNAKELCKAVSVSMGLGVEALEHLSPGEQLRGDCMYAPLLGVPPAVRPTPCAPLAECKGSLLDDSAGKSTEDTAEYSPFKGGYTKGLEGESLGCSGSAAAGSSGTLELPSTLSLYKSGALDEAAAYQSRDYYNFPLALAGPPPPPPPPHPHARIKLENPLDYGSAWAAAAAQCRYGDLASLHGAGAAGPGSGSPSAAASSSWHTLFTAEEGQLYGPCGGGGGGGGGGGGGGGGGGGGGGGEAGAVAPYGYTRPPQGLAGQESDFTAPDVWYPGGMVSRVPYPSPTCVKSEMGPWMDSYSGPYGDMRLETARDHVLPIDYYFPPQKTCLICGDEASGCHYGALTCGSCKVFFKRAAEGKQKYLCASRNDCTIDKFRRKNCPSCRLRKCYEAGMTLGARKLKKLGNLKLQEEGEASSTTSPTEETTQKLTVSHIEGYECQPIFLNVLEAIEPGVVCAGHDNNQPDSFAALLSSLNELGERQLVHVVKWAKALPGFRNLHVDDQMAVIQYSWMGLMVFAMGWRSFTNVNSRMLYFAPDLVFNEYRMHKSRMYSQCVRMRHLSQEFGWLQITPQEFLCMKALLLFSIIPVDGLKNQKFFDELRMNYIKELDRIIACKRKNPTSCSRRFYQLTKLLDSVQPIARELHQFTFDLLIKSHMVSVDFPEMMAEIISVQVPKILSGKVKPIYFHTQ
As to the kind of experiment: Antagonist activity for AR: MMTV-luc reporter transcription in COS-7 cells transfected with human AR, stimulated with DHT. Here is the method:
Antagonist activity for AR was evaluated according to the following method. COS-7 cells (ATCC) were transfected with pMMTV-luc vector (reporter plasmid having, as an androgen response element, […] long terminal repeat) and pEX-hAR vector (human androgen receptor expression vector: which expresses human AR gene under control of CMV promoter) by using Nucleofector (registered trademark) Kit R (Lonza) as a transfection reagent and Amaxa (Lonza). The COS-7 cells obtained after transfection were seeded in a clear bottom 96 well microplate (BD) at 1.5×10^4/well with phenol red free RPMI1640 containing 10% charcoal-treated fetal bovine serum (hereinbelow, DCC-FBS) (hereinbelow, the medium is referred to as an evaluation medium), and then cultured overnight. […] Then, the transcription activity value of the reporter plasmid was measured. The transcription activity was measured by using Bright-Glo™ Luciferase Assay System (Promega).

Setting [3] is: COS-7 cells with pMMTV-luc and pEX-hAR, 1 nmol/L DHT, 24 hours, read-out: AR antagonist IC50.

Turning to `CC(O)(CS(=O)(=O)c1ccc(F)cc1)C(=O)Nc1ccc(C#N)c(C(F)(F)F)c1` (centres unmarked) [Bicalutamide, reference compound], the GI50 in assay [1] was determined as 2.3 µM. For the same compound, the “Cell proliferation rate (%)” value in assay [2] was found to be 36%. In the assay on AR expression in LNCaP (48 h), the inhibition at 10 µM was < 10%.

Take `CCNC(=O)c1ccc(Nc2ncnc3c2CCN(c2ccc(C#N)c(Cl)c2)C3)nc1F` [Example 1, 6-((7-(3-Chloro-4-cyanophenyl)-5,6,7,8-tetrahydropyrido[3,4-d]pyrimidin-4-yl)amino)-N-ethyl-2-fluoronicotinamide]: the GI50 in assay [1] is 0.083 µM. Moreover, the “Cell proliferation rate (%)” value in assay [2] amounted to 9.7%. In addition, in the assay with AR expression in LNCaP (48 h), the inhibition at 10 µM is > 50%. Moreover, the IC50 against human androgen receptor is 0.0026 µM.

Take `CNC(=O)c1ccc(Nc2ncnc3c2CCN(c2ccc(C#N)c(Cl)c2)C3)nc1F` [Example 2, 6-((7-(3-chloro-4-cyanophenyl)-5,6,7,8-tetrahydropyrido[3,4-d]pyrimidin-4-yl)amino)-2-fluoro-N-methylnicotinamide]: the GI50 in assay [1] worked out at 0.29 µM. Also, the inhibition at 10 µM in the assay on AR expression in LNCaP (48 h) is > 50%. The same compound yielded an IC50 against human androgen receptor of 0.033 µM.

Turning to `CNC(=O)c1ccc(Nc2ncnc3c2CCN(c2ccc(C#N)c(C(F)(F)F)c2)C3)nc1F` [Example 3, 6-((7-(4-cyano-3-(trifluoromethyl)phenyl)-5,6,7,8-tetrahydropyrido[3,4-d]pyrimidin-4-yl)amino)-2-fluoro-N-methylnicotinamide], the GI50 in assay [1] is 0.36 µM. Also, the “Cell proliferation rate (%)” value in assay [2] worked out at 8.9%. Further, the inhibition at 10 µM in the assay on AR expression in LNCaP (48 h) was > 50%. This compound also gave an IC50 on human androgen receptor of 0.031 µM.

Turning to `CCNC(=O)c1ccc(Nc2ncnc3c2CCN(c2ccc(C#N)c(C(F)(F)F)c2)C3)nc1F` [Example 4, 6-((7-(4-cyano-3-(trifluoromethyl)phenyl)-5,6,7,8-tetrahydropyrido[3,4-d]pyrimidin-4-yl)amino)-N-ethyl-2-fluoronicotinamide], the GI50 in assay [1] amounted to 1.1 µM. Further, in assay [2], the “Cell proliferation rate (%)” value was 9.7%. Moreover, in the assay with AR expression in LNCaP (48 h), the inhibition at 10 µM was > 50%. In addition, it took 0.045 µM to reach half-maximal inhibition against human androgen receptor (IC50).

As to `CCNC(=O)c1ccc(Nc2ncnc3c2CCN(c2ccc(C#N)c(C(F)(F)F)c2)C3)nc1` [Example 5, 6-((7-(4-cyano-3-(trifluoromethyl)phenyl)-5,6,7,8-tetrahydropyrido[3,4-d]pyrimidin-4-yl)amino)-N-ethylnicotinamide], the GI50 in assay [1] was 0.12 µM. Further, in assay [2], the “Cell proliferation rate (%)” value is listed as −1.9%. Further, the inhibition at 10 µM in the assay on AR expression in LNCaP (48 h) is > 50%. The compound also returned an IC50 at human androgen receptor of 0.1 µM.

Take `N#Cc1ccc(N2CCc3c(ncnc3Nc3ccc(C(=O)N4CCCCCC4)cn3)C2)cc1C(F)(F)F` [Example 6, 4-(4-((5-(azepane-1-carbonyl)pyridin-2-yl)amino)-5,6-dihydropyrido[3,4-d]pyrimidin-7(8H)-yl)-2-(trifluoromethyl)benzonitrile]: in assay [1], the GI50 worked out at 0.055 µM. In addition, in assay [2], the “Cell proliferation rate (%)” value was −1.0%. The inhibition at 10 µM in the assay with AR expression in LNCaP (48 h) is > 50%. At human androgen receptor, this compound displayed an IC50 of 0.13 µM.

On to `CC(C)(C)ONC(=O)c1ccc(Nc2ncnc3c2CCN(c2ccc(C#N)c(C(F)(F)F)c2)C3)nc1` [Example 7, N-(tert-butoxy)-6-((7-(4-cyano-3-(trifluoromethyl)phenyl)-5,6,7,8-tetrahydropyrido[3,4-d]pyrimidin-4-yl)amino)nicotinamide], for which the GI50 in assay [1] stood at 0.18 µM. Moreover, the “Cell proliferation rate (%)” value in assay [2] was found to be 0.90%. Besides, in the assay with AR expression in LNCaP (48 h), the inhibition at 10 µM is > 50%. Also, the IC50 at human androgen receptor (setting [3]) stood at 0.38 µM.

For the compound `CCNC(=O)c1ccc(Nc2ncnc3c2CCN(c2ccc(C#N)c(C(F)(F)F)c2)C3)nn1` [Example 10, 6-((7-(4-cyano-3-(trifluoromethyl)phenyl)-5,6,7,8-tetrahydropyrido[3,4-d]pyrimidin-4-yl)amino)-N-ethylpyridazine-3-carboxamide], the GI50 in assay [1] was 0.4 µM. The inhibition at 10 µM in the assay on AR expression in LNCaP (48 h) is > 50%. This compound also had an IC50 against human androgen receptor of 0.007 µM.

In the case of `COc1cc(N2CCc3c(ncnc3Nc3ccc(C(C)(C)O)cn3)C2)ccc1[N+](=O)[O-]` [Example 15, 2-(6-((7-(3-methoxy-4-nitrophenyl)-5,6,7,8-tetrahydropyrido[3,4-d]pyrimidin-4-yl)amino)pyridin-3-yl)propan-2-ol], the GI50 in assay [1] was found to be 3 µM. Also, the “Cell proliferation rate (%)” value in assay [2] was 7.7%. In addition, the IC50 on human androgen receptor (setting [3]) stood at 0.26 µM.

For `CC(C)(O)c1ccc(Nc2ncnc3c2CCN(c2ccc([N+](=O)[O-])c(Cl)c2F)C3)nc1` [Example 18, 2-(6-((7-(3-chloro-2-fluoro-4-nitrophenyl)-5,6,7,8-tetrahydropyrido[3,4-d]pyrimidin-4-yl)amino)pyridin-3-yl)propan-2-ol], the “Cell proliferation rate (%)” value in assay [2] worked out at 9.5%. Further, on human androgen receptor (setting [3]), the IC50 is 1 µM.

On to `Cc1cc(N2CCc3c(ncnc3Nc3ccc(C(C)(C)O)cn3)C2)ccc1C#N` [Example 20, 4-(4-((5-(2-hydroxypropan-2-yl)pyridin-2-yl)amino)-5,6-dihydropyrido[3,4-d]pyrimidin-7(8H)-yl)-2-methylbenzonitrile], for which the “Cell proliferation rate (%)” value in assay [2] is listed as −0.89%. The inhibition at 10 µM with AR expression in LNCaP (10000 nmol/L, 48 hours, vs evaluation medium control) is > 50%. In addition, the IC50 at human androgen receptor (setting [3]) stood at 0.48 µM.

For `N#Cc1ccc(N2CCc3c(ncnc3Nc3ccc(C4(O)COC4)c(F)n3)C2)cc1Cl` [Example 35, 2-Chloro-4-(4-((6-fluoro-5-(3-hydroxyoxetan-3-yl)pyridin-2-yl)amino)-5,6-dihydropyrido[3,4-d]pyrimidin-7(8H)-yl)benzonitrile], the “Cell proliferation rate (%)” value in assay [2] is 9.4%. In addition, the inhibition at 10 µM in the assay with AR expression in LNCaP (48 h) was > 50%. Besides, the concentration for half-maximal inhibition (IC50) on human androgen receptor (setting [3]) is 0.12 µM.

In the case of `N#Cc1ccc(N2CCc3c(ncnc3Nc3ccc(OCCCN4CCNCC4)c(C(F)(F)F)c3)C2)cc1Cl` [Example 38, 2-chloro-4-(4-((4-(3-(piperazin-1-yl)propoxy)-3-(trifluoromethyl)phenyl)amino)-5,6-dihydropyrido[3,4-d]pyrimidin-7(8H)-yl)benzonitrile], in assay [1], the GI50 was 0.12 µM. For the same compound, in assay [2], the “Cell proliferation rate (%)” value is given as −1.3%. Moreover, the IC50 on human androgen receptor is 0.95 µM.

These data come from US10370372B2, “Fused pyrimidine compound or salt thereof” (TAIHO PHARMACEUTICAL CO., LTD., priority 2015, dated 2019).
